According to the supplement of paper PMC9103864:

Experiments:
[1] = tested on: BMSC (primary human bone marrow mesenchymal stromal cells); experiment: drug sensitivity score (DSS); higher = more sensitive
[2] = tested on: BMSC (primary human bone marrow mesenchymal stromal cells); experiment: absolute EC50 for viability; higher = less sensitive

| Compound | drug sensitivity score [1] | absolute EC50 for viability [2] |
| --- | --- | --- |
| CC(=O)c1cnc2ccc(-c3cc(Cl)c(O)c(Cl)c3)nc2c1N[C@H]1CC[C@H](CN(C)C)CC1 [OTS167] | 2.9 | > 1 µM |
| Nc1cc(COc2c(Cl)cc(C[C@H](N)C(=O)O)cc2Cl)c2oc(-c3ccccc3)nc2c1 [JPH203] | 0 | > 5 µM |
| Cc1cc(Nc2cc(N3CCN(C)CC3)nc(Sc3ccc(NC(=O)C4CC4)cc3)n2)n[nH]1 [Tozasertib] | 4.9 | 4.45 µM |
| COc1cc(Br)c(Nc2nc(-c3c(C)nc4ncccn34)cs2)c(Br)c1 [PTC-209] | 4 | > 10 µM |
| COc1cc([C@@H]2c3cc4c(cc3[C@@H](O[C@@H]3O[C@@H]5CO[C@@H](C)O[C@H]5[C@H](O)[C@H]3O)[C@H]3COC(=O)[C@H]23)OCO4)cc(OC)c1O [Etoposide] | 0 | > 10 µM |
| COc1cc(C)[nH]c(=O)c1CNC(=O)c1c(C)n([C@H](C)C2CCOCC2)c2ccccc12 [CPI-360] | 0 | > 10 µM |
| FC(F)(F)c1ccc(/C=C/c2nc(COc3ccc(CCCCn4ccnn4)cc3)co2)cc1 [Mubritinib] | 0.4 | > 1 µM |
| CCc1cc2c(cc1N1CCC(N3CCOCC3)CC1)C(C)(C)c1[nH]c3cc(C#N)ccc3c1C2=O [Alectinib] | 0 | > 1 µM |
| O=C(CCCCCCC(=O)Nc1ccc([C@H]2O[C@@H](CSc3nc(-c4ccccc4)c(-c4ccccc4)o3)C[C@@H](c3ccc(CO)cc3)O2)cc1)NO [Tubacin] | 0 | > 10 µM |
| O=C(O)C(=O)O.[NH-][C@@H]1CCCC[C@H]1[NH-].[Pt+2] [Oxaliplatin] | 0.7 | > 100 µM |
| Cn1cncc1[C@@](N)(c1ccc(Cl)cc1)c1ccc2c(c1)c(-c1cccc(Cl)c1)cc(=O)n2C [Tipifarnib] | 4.4 | > 10 µM |
| Clc1ccccc1C(c1ccccc1)(c1ccccc1)n1cccn1 [TRAM-34] | 0 | > 1 µM |
| Cc1ccccc1CN1C(=O)C2=C(CCN(Cc3ccccc3)C2)N2CCN=C12 [TIC10] | 3.8 | > 25 µM |
| CCCCC(=O)OCC(=O)[C@]1(O)Cc2c(O)c3c(c(O)c2[C@@H](O[C@H]2C[C@H](NC(=O)C(F)(F)F)[C@H](O)[C@H](C)O2)C1)C(=O)c1c(OC)cccc1C3=O [Valrubicin] | 10.8 | 0.489 µM |
| O=c1[nH]cc(F)c(=O)[nH]1 [Fluorouracil] | 0.9 | > 10 µM |
| CN(C)C/C=C/C(=O)Nc1cccc(C(=O)Nc2cccc(Nc3ncc(Cl)c(-c4c[nH]c5ccccc45)n3)c2)c1 [THZ2] | 11.1 | 2.71 µM |
| O=C(/C=C/c1cccnc1)NCCCCC1CCN(C(=O)c2ccccc2)CC1 [Daporinad] | 0.2 | > 1 µM |
| CCc1cncnc1N1CCN(Cc2nc3ccc(C(F)(F)F)cc3[nH]2)CC1 | 1 | > 10 µM |
| O=c1ncn2nc(Sc3ccc(F)cc3F)ccc2c1-c1c(Cl)cccc1Cl [Neflamapimod] | 0.5 | > 10 µM |
| CN1C(=O)N[C@H](Cc2c[nH]c3c(Cl)cccc23)C1=O [Necrostatin 2] | 0 | > 10 µM |
| C[C@H]1C[C@@H]2[C@H]([C@@H](O)C[C@@]3(C)[C@H]2CC[C@]3(O)C(=O)CO)[C@@]2(C)C=CC(=O)C=C12 [Methylprednisolone] | 0 | > 10 µM |

| Compound | drug sensitivity score [1] | absolute EC50 for viability [2] |
| --- | --- | --- |
| CO[C@H]1C[C@@H]2CC[C@@H](C)[C@@](O)(O2)C(=O)C(=O)N2CCCC[C@H]2C(=O)O[C@H]([C@H](C)C[C@@H]2CC[C@@H](OP(C)(C)=O)[C@H](OC)C2)CC(=O)[C@H](C)/C=C(\C)[C@@H](O)[C@@H](OC)C(=O)[C@H](C)C[C@H](C)/C=C/C=C/C=C/1C [Ridaforolimus] | 7.6 | > 0.1 µM |
| C[C@@H]1C=C2C(=O)O[C@@H]3CC[C@H](C1)[C@]23O [Galiellalactone] | 1.3 | > 25 µM |
| C=CC(=O)Nc1cccc(Oc2nc(Nc3ccc(N4CCN(C)CC4)cc3)nc3ccsc23)c1 [Olmutinib] | 0 | > 1 µM |
| COc1cc(Nc2ncc(F)c(Nc3ccc4c(n3)NC(=O)C(C)(C)O4)n2)cc(OC)c1OC [Tamatinib] | 4.2 | > 10 µM |
| Cc1ncc(-c2ccnc(Nc3ccc(S(C)(=O)=O)cc3)n2)n1C(C)C [AZD-5438] | 1.5 | > 10 µM |
| CNCc1ccc(-c2[nH]c3cc(F)cc4c3c2CCNC4=O)cc1 [Rucaparib] | 2.3 | > 10 µM |
| COc1cc(N2CCC(N3CCN(C)CC3)CC2)ccc1Nc1ncnc(Nc2ccccc2S(=O)(=O)C(C)C)n1 [ASP3026] | 6.5 | 2.29 µM |
| CN(C)Cc1ccc(S(=O)(=O)n2ccc(/C=C/C(=O)NO)c2)cc1 [Resminostat] | 6 | 2.63 µM |
| CC(C)c1cc(-c2n[nH]c(=O)n2-c2ccc3c(ccn3C)c2)c(O)cc1O [Ganetespib] | 10.3 | 0.0862 µM |
| Cc1ccc(Nc2nccc(N(C)c3ccc4c(C)n(C)nc4c3)n2)cc1S(N)(=O)=O [Pazopanib] | 2.1 | > 10 µM |
| N#CC1(c2ccc(NC(=O)c3cccnc3NCc3ccncc3)cc2)CCCC1 [Apatinib] | 0.1 | > 10 µM |
| CC(C)NC(=O)COc1cccc(-c2nc(Nc3ccc4[nH]ncc4c3)c3ccccc3n2)c1 [KD025] | 0 | > 5 µM |
| COCCOc1cnc2ccn([C@H](C)c3nnc4c(F)cc(-c5cnn(C)c5)cn34)c(=O)c2c1 [AMG-337] | 0 | 9.93 µM |
| C[C@]12CC[C@@H]3c4ccc(O)cc4C[C@@H](CCCCCCCCC[S+]([O-])CCCC(F)(F)C(F)(F)F)[C@H]3[C@@H]1CC[C@@H]2O (some centres undefined) [Fulvestrant] | 0 | > 1 µM |
| CON(C)C(=O)N1N=C(c2cc(F)ccc2F)S[C@@]1(CCCN)c1ccccc1 [Filanesib] | 0 | > 1 µM |
| CC[C@@H]1C(=O)OC[C@@H]1Cc1cncn1C [Pilocarpine] | 0 | > 40 µM |
| Oc1ccc2c(c1)CC[C@H](c1ccccc1)[C@@H]2c1ccc(OCCN2CCCC2)cc1 [Lasofoxifene] | 0.4 | > 1 µM |
| CCS(=O)(=O)N1CCN(c2ccc(Nc3ncc(C(N)=O)c(NC4CC4)n3)cc2)CC1 [Cerdulatinib] | 5.1 | > 10 µM |
| Oc1nc(-c2ccc(C(F)(F)F)cc2)nc2c1CSCC2 [XAV-939] | 1.5 | > 10 µM |
| O=C(O)C1(C(=O)O)CCC1.[NH2-].[NH2-].[Pt+2] [Carboplatin] | 2.5 | > 100 µM |
| C=CCc1cccc(/C=N/NC(=O)CN2CCN(Cc3ccccc3)CC2)c1O [PAC-1] | 0.5 | > 10 µM |
